Test results as given in ChEMBL document CHEMBL2073918, “Effect of modulators on the ATPase activity and vanadate nucleotide trapping of human P-glycoprotein” (Biochem Pharmacol, 1998).

Tests used:
[1] = molecular target: T1, ATP-dependent translocase ABCB1 (Homo sapiens, UniProt P08183); assay: TP_TRANSPORTER: inhibition of ATPase activity (Verapamil) in membranes from CEM/VLB100 cells; format: functional, cell membranes, Membrane
[2] = molecular target: T1, ATP-dependent translocase ABCB1; assay: TP_TRANSPORTER: ATP hydrolysis in membranes from CEM/VLB100 cells; format: functional, cell membranes, Membrane

T1 sequence (P08183 whole entry): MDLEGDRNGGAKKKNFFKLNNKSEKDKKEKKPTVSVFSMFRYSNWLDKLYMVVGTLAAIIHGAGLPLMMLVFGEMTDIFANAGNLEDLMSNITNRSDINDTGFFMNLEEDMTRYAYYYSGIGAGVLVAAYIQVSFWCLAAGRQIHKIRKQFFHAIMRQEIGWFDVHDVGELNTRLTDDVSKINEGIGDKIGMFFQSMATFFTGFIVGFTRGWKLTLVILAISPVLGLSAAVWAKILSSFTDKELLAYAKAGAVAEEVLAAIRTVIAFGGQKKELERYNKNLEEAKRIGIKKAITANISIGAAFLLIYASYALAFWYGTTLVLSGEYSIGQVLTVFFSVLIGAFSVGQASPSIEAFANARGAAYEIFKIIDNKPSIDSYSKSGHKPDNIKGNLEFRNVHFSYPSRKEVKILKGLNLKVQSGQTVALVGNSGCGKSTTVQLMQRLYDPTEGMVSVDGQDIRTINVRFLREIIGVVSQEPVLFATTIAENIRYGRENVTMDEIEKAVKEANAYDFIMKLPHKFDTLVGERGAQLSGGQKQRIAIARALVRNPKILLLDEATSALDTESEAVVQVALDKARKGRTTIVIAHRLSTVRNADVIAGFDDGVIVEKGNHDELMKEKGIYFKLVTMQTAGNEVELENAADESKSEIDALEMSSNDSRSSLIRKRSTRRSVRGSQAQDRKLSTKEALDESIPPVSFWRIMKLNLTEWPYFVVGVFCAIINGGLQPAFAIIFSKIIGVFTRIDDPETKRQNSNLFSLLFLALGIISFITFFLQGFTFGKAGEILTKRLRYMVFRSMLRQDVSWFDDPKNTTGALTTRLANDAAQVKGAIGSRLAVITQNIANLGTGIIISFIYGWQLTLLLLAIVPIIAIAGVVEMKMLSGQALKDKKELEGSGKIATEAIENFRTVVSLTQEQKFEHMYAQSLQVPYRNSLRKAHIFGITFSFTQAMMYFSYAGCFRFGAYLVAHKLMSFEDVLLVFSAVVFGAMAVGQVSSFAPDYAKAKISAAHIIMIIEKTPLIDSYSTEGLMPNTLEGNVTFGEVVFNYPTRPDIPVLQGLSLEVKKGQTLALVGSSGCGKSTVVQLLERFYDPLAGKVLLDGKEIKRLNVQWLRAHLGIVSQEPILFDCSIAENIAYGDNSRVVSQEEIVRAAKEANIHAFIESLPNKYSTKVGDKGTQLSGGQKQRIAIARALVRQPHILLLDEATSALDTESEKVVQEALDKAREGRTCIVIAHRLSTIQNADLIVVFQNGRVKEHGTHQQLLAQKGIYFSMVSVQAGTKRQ

| Compound | Ki [1] [µM] | Activity [2] |
| --- | --- | --- |
| COC(=O)[C@@H]1C2CC3c4[nH]c5ccccc5c4CCN3CC2CC[C@@H]1OC(=O)c1cc(OC)c(OC)c(OC)c1 (some centres not stated) [TRIMETHOXYBENZOYLYOHIMBINE] | 2.1 |  |
| CCC12C=CCN3CC[C@@]4(c5ccc(OC)cc5N(C)[C@H]4[C@@](O)(C(=O)OC)[C@@H]1OC(C)=O)[C@@H]32 (some centres not stated) [VINDOLINE] |  | is not a substrate [-] |
